Results reported in US8580794B2 (AbbVie Inc., priority 2009, dated 2013).
pKi: −log10 of the molar value.

Molecular target: GST-Bc1-2 (Homo sapiens, UniProt P10415)
Assay: Time Resolved-Fluorescence Resonance Energy Transfer (TR-FRET) Bcl-2 binding assay with F-Bak peptide probe
Settings: GST-Bcl-2 1 nM, F-Bak probe 100 nM, Tb-anti-GST 1 nM; '<' = below limit of detection; read-out: TR-FRET Bcl-2 Binding Ki

Sequence of GST-Bc1-2 (P10415 whole entry): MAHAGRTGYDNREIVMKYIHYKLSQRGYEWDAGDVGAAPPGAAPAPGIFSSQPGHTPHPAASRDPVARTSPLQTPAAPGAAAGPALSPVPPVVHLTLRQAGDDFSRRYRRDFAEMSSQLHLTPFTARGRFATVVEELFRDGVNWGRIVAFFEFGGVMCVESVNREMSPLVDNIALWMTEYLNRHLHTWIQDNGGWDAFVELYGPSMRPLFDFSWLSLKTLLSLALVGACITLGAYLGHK

SMILES | pKi
CC1(C)CCC(CN2CCN(c3ccc(C(=O)NS(=O)(=O)c4ccc(OCC5C[C@H]6C=C[C@@H]5C6)c([N+](=O)[O-])c4)c(Oc4cnc5[nH]ccc5c4)c3)CC2)=C(c2ccc(Cl)cc2)C1 (stereo partly drawn) [Example 201, N-({4-[(1S,4S)-bicyclo[2.2.1]hept-5-en-2-ylmethoxy]-3-nitrophenyl}sulfonyl)-4-(4-{[2-(4-chlorophenyl)-4,4-dimethylcyclohex-1-en-1-yl]methyl}piperazin-1-yl)-2-(1H-pyrrolo[2,3-b]pyridin-5-yloxy)benzamide] | 10.85
COCCNc1ccc(S(=O)(=O)NC(=O)c2ccc(N3CCN(CC4=C(c5ccc(Cl)cc5)CC(C)(C)CC4)CC3)cc2Oc2cnc3[nH]ccc3c2)cc1S(=O)(=O)C(F)(F)F [Example 16, 4-(4-{[2-(4-chlorophenyl)-4,4-dimethylcyclohex-1-en-1-yl]methyl}piperazin-1-yl)-N-({4-[(2-methoxyethyl)amino]-3-[(trifluoromethyl)sulfonyl]phenyl}sulfonyl)-2-(1H-pyrrolo[2,3-b]pyridin-5-yloxy)benzamide] | 9.66
O=C(NS(=O)(=O)c1ccc(N[C@H]2CC[C@H](N3CCOCC3)CC2)c([N+](=O)[O-])c1)c1ccc(N2CCN(CC3=C(c4ccc(Cl)cc4)CCC4(CCCC4)C3)CC2)cc1Oc1cnc2[nH]ccc2c1 [Example 71, Trans-4-(4-{[8-(4-chlorophenyl)spiro[4.5]dec-7-en-7-yl]methyl}piperazin-1-yl)-N-({4-[(4-morpholin-4-ylcyclohexyl)amino]-3-nitrophenyl}sulfonyl)-2-(1H-pyrrolo[2,3-b]pyridin-5-yloxy)benzamide] | 11.00
CC1(C)CCC(CN2CCN(c3ccc(C(=O)NS(=O)(=O)c4ccc(N[C@H]5CCCNC5=O)c([N+](=O)[O-])c4)c(Oc4cnc5[nH]ccc5c4)c3)CC2)=C(c2ccc(Cl)cc2)C1 [Example 160, 4-(4-{[2-(4-chlorophenyl)-4,4-dimethylcyclohex-1-en-1-yl]methyl}piperazin-1-yl)-N-[(3-nitro-4-{[(3S)-2-oxopiperidin-3-yl]amino}phenyl)sulfonyl]-2-(1H-pyrrolo[2,3-b]pyridin-5-yloxy)benzamide] | > 11.00
CC1(C)CCC(CN2CCN(c3ccc(C(=O)NS(=O)(=O)c4ccc(NC[C@H]5CN(C6CC6)CCO5)c([N+](=O)[O-])c4)c(Oc4cnc5[nH]ccc5c4)c3)CC2)=C(c2ccc(Cl)cc2)C1 [Example 327, 4-(4-{[2-(4-chlorophenyl)-4,4-dimethylcyclohex-1-en-1-yl]methyl}piperazin-1-yl)-N-{[4-({[(2S)-4-cyclopropylmorpholin-2-yl]methyl}amino)-3-nitrophenyl]sulfonyl}-2-(1H-pyrrolo[2,3-b]pyridin-5-yloxy)benzamide] | > 11.00
CC1(C)CCC(CN2CCN(c3ccc(C(=O)NS(=O)(=O)c4ccc(NCC5COCCN5C5CCC5)c([N+](=O)[O-])c4)c(Oc4cnc5[nH]ccc5c4)c3)CC2)=C(c2ccc(Cl)cc2)C1 (centres unmarked) [Example 170, 4-(4-{[2-(4-chlorophenyl)-4,4-dimethylcyclohex-1-en-1-yl]methyl}piperazin-1-yl)-N-[(4-{[(4-cyclobutylmorpholin-3-yl)methyl]amino}-3-nitrophenyl)sulfonyl]-2-(1H-pyrrolo[2,3-b]pyridin-5-yloxy)benzamide] | 10.66
CC1(C)CCC(CN2CCN(c3ccc(C(=O)NS(=O)(=O)c4ccc(NC5CCN(C6COC6)CC5)c([N+](=O)[O-])c4)c(Oc4cnc5[nH]ccc5c4)c3)CC2)=C(c2ccc(Cl)cc2)C1 [Example 139, 4-(4-{[2-(4-chlorophenyl)-4,4-dimethylcyclohex-1-en-1-yl]methyl}piperazin-1-yl)-N-({3-nitro-4-[(1-oxetan-3-ylpiperidin-4-yl)amino]phenyl}sulfonyl)-2-(1H-pyrrolo[2,3-b]pyridin-5-yloxy)benzamide] | > 11.00

Same assay, conditions: Table 5, direct comparison Z=N vs Z=C analogs; read-out: Bcl-2 FRET ki

SMILES | pKi
COCCNc1ccc(S(=O)(=O)NC(=O)c2ccc(N3CCN(CC4=C(c5ccc(Cl)cc5)CC(C)(C)CC4)CC3)cc2Oc2cnc3[nH]ccc3c2)cc1S(=O)(=O)C(F)(F)F [Example 16, 4-(4-{[2-(4-chlorophenyl)-4,4-dimethylcyclohex-1-en-1-yl]methyl}piperazin-1-yl)-N-({4-[(2-methoxyethyl)amino]-3-[(trifluoromethyl)sulfonyl]phenyl}sulfonyl)-2-(1H-pyrrolo[2,3-b]pyridin-5-yloxy)benzamide] | 9.66
